Experimental data from patent publication US20180133221A1, “ADMINISTRATION OF UBIQUITIN-ACTIVATING ENZYME INHIBITOR AND CHEMOTHERAPEUTIC AGENTS” (Millennium Pharmaceuticals, Inc., priority 2014, published 2018).

Key:
PHTX-24C colon xenograft = test: PHTX-24C xenograft model, Compound 1 and oxaliplatin; format: in vivo, CB-17 SCID mice
Protocol: Oxaliplatin (Jiang Su Geng Rui Pharmaceuticals, Inc.) is formulated in 0.9% saline and administered by IP injection once weekly (QW) at 7.5 or 12.5 mg/kg. The once weekly schedule is also described as every 7 days (Q7D).
(§1) Compound 1 [((1R,2R,3S,4R)-2,3-dihydroxy-4-(2-(3-(trifluoromethylthio)-phenyl)pyrazolo[1,5-a]pyrimidin-7-ylamino)cyclopentyl)methyl sulfamate] is formulated in 10-20% HPbCD in sterile water and administered intravenously (IV) or subcutaneously (SC) on a BIW (twice/week schedule; Monday and Thursday or Tuesday and Friday) for either 2-4 weeks.
(§2) Tumors were measured twice weekly using vernier calipers. Tumor volumes were calculated using the standard formula V=W^2×L/2,). When mean tumor volumes reached approximately 200 mm^3 for PHTX-24C, 220 mm^3 for PHTX-Lu132, 150 mm^3 for CTG-0256, 260 mm^3 for CTG-0486, 185 mm^3 for PHTX-17C, 260 mm^3 for CTG-0165, 150 mm^3 for PHTX-14B in the study of Compound 1 and paclitaxel, 180 mm^3 for PHTX-14B in the study of Compound 1 and docetaxel, 200 mm^3 for SKOV-3, 220 mm^3 for PHTX-02B in the study of Compound 1 and docetaxel, 250 mm^3 for PHTX-02B in the study of Compound 1 and paclitaxel, 195 mm^3 for CTG-0159, 180 mm^3 for CTG-0012 or 150 mm^3 for Calu-6, mice were randomized into groups of n=5-7/arm as described in the tables below, and injected with vehicle, Compound 1 or agents (docetaxel, paclitaxel, oxaliplatin, cisplatin or carboplatin), or the combination of Compound 1 plus one of the agents, at various doses and schedules as described in tables below. Tumor size and body weight were measured approximately twice a week for the duration of the study. Mice are euthanized when their tumor volume reached 10% of their body weight, or when the average tumor volume of a treatment or control group reached approximately 2000 mm^3. Tumor growth continued to be monitored after the dosing period in some studies. Average tumor volume is reported as a function of time for selected arms of selected studies in the Figures.
(§3) Measurements from day 0 to day 14, day 19, day 21, or day 28 are analyzed as specified in Tables below. All tumor volumes have a value of 1 added to them before log10 transformation. For each animal, the log tumor volume at day 0 is subtracted from the log tumor volume on the subsequent days. This difference vs. time is used to calculate an area under the curve (AUC) for each animal using the trapezoid rule. […] The synergy score for the combination of agents A and B is defined as
(§4) 100*(mean(AUCAB)−mean(AUCA)−mean(AUCB)+mean(AUCctl))/mean(AUCctl):
where AUCAB, AUCA, AUCB, and AUCctl are the AUC values for animals in the combination group, the A group, the B group, and the control group, respectively. […]

[1] = tested on: CTG-0165 human lung NSCLC xenograft; test: CTG-0165 xenograft model, Compound 1 and cisplatin; format: in vivo, Mus musculus/nu/nu mice; conditions: for Tumor Volume Day 21: in mm³ (unit assumed)
Protocol: CTG-0165 tumor fragments (approximately 2×2×3 mm^3) were implanted into the subcutaneous space in the right dorsal flank of female Mus musculus/nu/nu mice (age 6-9 weeks, Harlan Laboratories, Madison, Wis., USA) using a 13-gauge trocar. When the mean tumor volume reached approximately 260 mm^3, the animals were randomized into 8 treatment groups (n=5/group).
Cisplatin (Teva Pharmaceuticals) is formulated in 0.9% saline and administered by IV injection once weekly (QW) at 7.5 mg/kg. The once weekly schedule is also described as every 7 days (Q7D).
as §1, §2, §3, §4
where AUCAB, AUCA, AUCB, and AUCctl are the AUC values for animals in the combination group, the A group, the B group, and the control group, respectively. The standard error of the synergy score is computed based on the variation in the AUC values among the animals. […] If the P-value is above 0.05, then the combination is considered to be additive. If the P-value is below 0.05, and the synergy score is less than zero, then the combination is considered to be synergistic.

[2] = tested on: PHTX-02B breast xenograft; test: PHTX-02B xenograft model, Compound 1 and docetaxel; format: in vivo, SCID-NOD mice; conditions: for Tumor Volume Day 21: in mm³ (unit assumed)
Protocol: Docetaxel (Henry Schein, Inc., Pittsburgh Pa.) is formulated in 0.9% saline and administered by intravenous injection (IV) once weekly (QW) at 5 mg/kg or 10 mg/kg. […] Tumors were measured twice weekly using vernier calipers.

[3] = tested on: PHTX-14B breast xenograft; test: PHTX-14B xenograft model, Compound 1 and paclitaxel; format: in vivo, Balb/c Nude Mice; conditions: for Tumor Volume Day 28: in mm³ (unit assumed)
Protocol: Paclitaxel (Bristol-Myers Squibb Company) is formulated in 0.9% saline and administered by intravenous injection (IV) on every 4 days (Q4D) or once weekly (QW) at 10 and 20 mg/kg. […] Tumors were measured twice weekly using vernier calipers.

NS(=O)(=O)OC[C@H]1C[C@@H](Nc2ccnc3cc(-c4cccc(SC(F)(F)F)c4)nn23)[C@H](O)[C@@H]1O [Compound 1, ((1R,2R,3S,4R)-2,3-dihydroxy-4-(2-(3-(trifluoromethylthio)phenyl)pyrazolo[1,5-a]pyrimidin-7-ylamino)cyclopentyl)methyl sulfamate]
Tumor Volume Day 21 (PHTX-24C colon xenograft; 10 mg/kg Compound 1 BIWx3 IV, in mm³ (unit assumed)): 609.3 | anti-tumor activity compared to vehicle control (PHTX-24C colon xenograft; single agent Compound 1 IV at 10 mk/kg BIW): modest anti-tumor activity | Tumor Volume Day 21 ([1]; 6.25 mg/kg Compound 1 BIWx3 IV): 988.8 | Tumor Volume Day 21 ([1]; 15 mg/kg Compound 1 BIWx3 IV): 1624.9 | Tumor Volume Day 21 ([1]; 20 mg/kg Compound 1 BIWx3 IV): 1476.3 | anti-tumor activity compared to vehicle control ([1]; single agent Compound 1 IV at 20, 15, 6.25 mg/kg BIW): modest to weak anti-tumor activity | Tumor Volume Day 21 ([2]; 7.5 mg/kg Compound 1 BIWx3 SC): 596.5 | Tumor Volume Day 21 ([2]; 15 mg/kg Compound 1 BIWx3 SC): 324.8 | Tumor Volume Day 21 ([2]; 20 mg/kg Compound 1 BIWx3 IV): 178.8 | Tumor Volume Day 21 ([2]; 20 mg/kg Compound 1 BIWx3 SC): 185 | tumor growth compared to the vehicle control group ([2]; single agent Compound 1 SC at 7.5, 15 and 20 mg/kg BIW, IV also 20 mg/kg BIW): inhibited tumor growth | Tumor Volume Day 28 ([3]; 10 mg/kg Compound 1 BIWx4 SC): 690.0 | Tumor Volume Day 28 ([3]; 20 mg/kg Compound 1 BIWx4 SC): 480.6 | Tumor Volume Day 28 ([3]; 30 mg/kg Compound 1 BIWx4 SC): 165.1 | anti-tumor activity ([3]; single agent Compound 1 SC at 30 mg/kg BIW for 4 weeks): strong anti-tumor activity | anti-tumor activity compared to vehicle control ([3]; single agent Compound 1 SC at 10, and 20 mg/kg BIW for 4 weeks): modest anti-tumor activity
